“Also recorded” adds a separate entry of the source.
What was measured:
[1] = target: T1, 5-LO (Homo sapiens, UniProt P09917); assay: Biosynthesis of 5-LO products in HEK293 cells expressing 5-LO and FLAP (A23187 + arachidonic acid); type: cell-based; set-up: expressed in transfected cells; host or cells: HEK293; settings: 1 μM compound, 10 μM A23187 + 10 μM arachidonic acid, 15 min
T1 sequence (P09917 1-674): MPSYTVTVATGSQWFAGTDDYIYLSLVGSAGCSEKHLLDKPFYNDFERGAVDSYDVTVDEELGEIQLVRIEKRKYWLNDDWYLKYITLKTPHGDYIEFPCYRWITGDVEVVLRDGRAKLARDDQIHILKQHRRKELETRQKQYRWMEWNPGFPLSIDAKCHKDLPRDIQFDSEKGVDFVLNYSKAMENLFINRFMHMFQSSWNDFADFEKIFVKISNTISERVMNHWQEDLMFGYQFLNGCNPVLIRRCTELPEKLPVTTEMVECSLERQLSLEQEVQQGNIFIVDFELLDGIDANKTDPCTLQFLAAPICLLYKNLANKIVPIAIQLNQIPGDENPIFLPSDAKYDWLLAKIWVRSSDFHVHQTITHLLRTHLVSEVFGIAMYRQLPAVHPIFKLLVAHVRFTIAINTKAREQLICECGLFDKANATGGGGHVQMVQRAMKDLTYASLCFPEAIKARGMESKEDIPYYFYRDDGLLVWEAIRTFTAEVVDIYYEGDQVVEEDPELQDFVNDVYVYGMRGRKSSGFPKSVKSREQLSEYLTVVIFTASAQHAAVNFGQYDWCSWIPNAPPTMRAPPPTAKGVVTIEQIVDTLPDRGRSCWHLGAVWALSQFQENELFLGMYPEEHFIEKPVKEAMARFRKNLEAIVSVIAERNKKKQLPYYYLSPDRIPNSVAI
Experimental: HEK293 cells expressing both 5-LO and the 5-lipoxygenase activating protein (FLAP) were generated as previously reported. For cell stimulation of 5-LO products, transfected HEK293 cells were collected following trypsinization and washed and the cell pellet was resuspended in Hank's balanced salt solution (HBSS, Lonza) containing 1.6 mM CaCl2 at a concentration of 5 × 10^5 cells/ml. Cells were preincubated with each compound at the indicated concentration for 5 min at 37°C. Cells were then stimulated for 15 minutes at 37°C with the addition of 10 μM calcium ionophore A23187 (Sigma-Aldrich) and 10 μM arachidonic acid (Cayman Chemical). Stimulations were stopped by adding 0.5 volume of cold MeOH:MeCN (1 : 1) containing 100 ng/ml of 19-OH prostaglandin B2 (PGB2) as internal standard. Samples were then processed and 5-LO products were analyzed by reversed-phase high-performance liquid chromatography (RP-HPLC) as described previously.
To evaluate CAPE analogues as potential inhibitors of the biosynthesis of 5-LO products, a first series of experiments was performed in HEK293 cells expressing both 5-LO and FLAP as previously described. HEK293 cells were first preincubated with the test compounds (1 μM), then stimulated in the presence of arachidonic acid and calcium ionophore A23187 to induce the biosynthesis of 5-LO products (Figure 2(a)). […] Based on these criteria, compounds 9, 13, 14, 15, 16, and 19 were selected for subsequent analyses.
Figure 2 Effect of the test compounds on the biosynthesis of 5-LO products in transfected HEK293 cells (a) and thapsigargin-stimulated PMNL (b). (a) HEK293 cells expressing both 5-LO and FLAP were incubated in presence of the indicated compounds (1 μM) or their diluent (control, 0.5% DMSO) for 5 min, then biosynthesis of 5-LO products was initiated with the addition of 10 μM calcium ionophore A23187 and 10 μM arachidonic acid for 15 min. After stimulation, reactions were stopped and samples were processed for analysis of 5-LO products by RP-HPLC. Total 5-LO products measured represent the sum of LTB4, its trans isomers, and 5-hydroxyeicosatetraenoic acid. (b) Freshly isolated human PMNL were incubated in presence of test compounds (or their diluent control, DMSO 0.5%) at the indicated concentrations for 5 min. Biosynthesis of the 5-LO products was initiated with the addition of 1 μM of thapsigargin, followed by a 15 min incubation period at 37°C. The stimulation was then stopped and samples were processed for RP-HPLC analysis and total 5-LO products quantification. Total 5-LO products measured represent the sum of LTB4, its trans isomers, 20-COOH- and 20-OH-LTB4 and 5-hydroxyeicosatetraenoic acid. Data are expressed as means ± SEM of at least 3 independent experiments. ^∗Different from control, as determined by one-way ANOVA with Dunnett's multiple comparison test (p < 0.05).

[2] = test system: arachidonic acid release; settings: cited from earlier work
[3] = target: T1, 5-LO; set-up: endogenous in cells; host or cells: human polymorphonuclear leukocytes (PMNL) isolated from whole blood; method as in PMID 22347509; settings: cited from earlier work

Compound	Inhibition of biosynthesis of 5-LO products in transfected HEK293 cells [1]	Inhibition of liberation of cellular arachidonic acid (previously shown) [2]	Inhibition of biosynthesis of 5-LO products in whole blood (previous studies) [3]
COC(=O)/C=C/c1ccc(O)c(O)c1 [Compound 3]	without inhibitory activity		
CCOC(=O)/C=C/c1ccc(O)c(O)c1 [Compound 4, ethyl caffeate]	without inhibitory activity		
O=C(/C=C/c1ccc(O)c(O)c1)Oc1ccccc1 [Compound 10]	not as effective at inhibiting 5-LO as CAPE (2)		
O=C(/C=C/c1ccc(O)c(O)c1)OCc1ccccc1 [Compound 11]	not as effective at inhibiting 5-LO as CAPE (2)		
CC(c1cc2ccccc2s1)N(O)C(N)=O (stereo not shown) [Zileuton (1), zileuton, reference compound]	less effective than the selected compounds; also recorded: significantly inhibited the biosynthesis of 5-LO products	previously shown to inhibit the liberation of cellular arachidonic acid	slightly better inhibitor of the biosynthesis of 5-LO products in whole blood than CAPE (2)

— PMC5478869, “New Hydroxycinnamic Acid Esters as Novel 5-Lipoxygenase Inhibitors That Affect Leukotriene Biosynthesis” (Mediators of Inflammation, 2017)
